According to patent publication US20090029958A1, “PHENETHANOLAMINE DERIVATIVES AS BETA2 ADRENORECEPTOR AGONISTS” (priority 2006, published 2009):
Structures can show the parent of a compound that is named as a salt.

Columns and labels:
Adrenergic β2 [1] = target: T1, Adrenergic β2 (Homo sapiens, UniProt P07550); assay: cAMP production in H292 cells, AlphaScreen cAMP detection (10 minutes incubation with test compound); assay type: cell-based; conditions: for Intrinsic Activity: fraction relative to the maximum activity determined for formoterol, 10 minutes incubation; for EC50: rolipram 300 μM, test compounds incubated 10 minutes at room temperature
T1 construct: endogenous in cells; host or cells: H292 cells
Description: H292 cells were grown in RPMI (Roswell Park Memorial Institute) medium containing, 10% (v/v) FBS (foetal bovine serum) and 2 mM L-glutamine. Cells were grown in 225 cm2 flasks containing 25 mL media in a humidified incubator at 37° C., 5% CO2. Cells were harvested from the flask and passaged at a 1 in 10 dilution once per week.
The media from flasks containing H292 cells was removed, rinsed with 10 mL PBS (phosphate buffered saline) and replaced with 10 mL Accutase™ cell detachment solution. Flasks were incubated for 15 minutes in a humidified incubator at 37° C., 5% CO2. The cell suspension was counted and the cells re-suspended in RPMI media (containing 10% (v/v) FBS and 2 mM L-glutamine) at 0.05×10^6 cells per mL. 5000 cells in 100 μL were added to each well of a tissue-culture-treated 96-well plate and the cells incubated overnight in a humidified incubator at 37° C., 5% CO2. The culture media was removed, washed twice with 100 μL assay buffer and replaced with 50 μL assay buffer. Cells were rested at room temperature for 20 minutes after which time 25 μL of rolipram (1.2 mM made up in assay buffer containing 2.4% (v/v) dimethylsulphoxide) was added. Cells were incubated with rolipram for 10 minutes after which time test compounds (made up as ×4 concentrated stocks in assay buffer containing 4% (v/v) dimethylsulphoxide) were added and the cells were incubated for 10 minutes at room temperature. Final rolipram concentration in the assay was 300 μM and final vehicle concentration was 1.6% (v/v) dimethylsulphoxide. The reaction was stopped by removing supernatants, washing once with 100 μL assay buffer and replacing with 50 μL lysis buffer. The cell monolayer was frozen at −80° C. for 30 minutes (or overnight).
(§1) The concentration of cAMP (cyclic adenosine monophosphate) in the cell lysate was determined using the AlphaScreen™ methodology. The frozen cell plate was thawed for 20 minutes on a plate shaker then 10 μL of the cell lysate was transferred to a 96-well white plate. 40 μL of mixed AlphaScreen™ detection beads (containing equal volumes of donor beads (pre-incubated with biotinylated cAMP in the dark for 30 minutes) and acceptor beads), was added to each well and the plate incubated at room temperature for 10 hours in the dark. The AlphaScreen™ signal was measured using an EnVision spectrophotometer (Perkin-Elmer Inc.) with the recommended manufacturer's settings. cAMP concentrations were determined by reference to a calibration curve determined in the same experiment using standard cAMP concentrations (made up in lysis buffer in a 96-well tissue-culture-treated plate and frozen/thawed alongside the test samples) and detected using the same protocol. Concentration response curves for agonists were constructed to determine both the pEC50 and Intrinsic Activity. Intrinsic Activity was expressed as a fraction relative to the maximum activity determined for formoterol in each experiment.

Adrenergic β2 [2] = target: T1, Adrenergic β2; assay: Alternative Adrenergic β2 Mediated cAMP Production in H292 cells (60 minutes incubation with test compound); assay type: cell-based; conditions: for Intrinsic Activity: fraction relative to the maximum activity determined for formoterol, 60 minutes incubation; for EC50: rolipram 300 μM, test compounds incubated 60 minutes at room temperature
Description: H292 cells were grown in 225 cm2 flasks incubator at 37° C., 5% CO2 in RPMI medium containing, 10% (v/v) FBS (foetal bovine serum) and 2 mM L-glutamine.
Adherent H292 cells were removed from tissue culture flasks by treatment with Accutase™ cell detachment solution for 15 minutes. Flasks were incubated for 15 minutes in a humidified incubator at 37° C., 5% CO2. Detached cells were re-suspended in RPMI media (containing 10% (v/v) FBS and 2 mM L-glutamine) at 0.05×10^6 cells per mL. 5000 cells in 100 μL were added to each well of a tissue-culture-treated 96-well plate and the cells incubated overnight in a humidified incubator at 37° C., 5% CO2. The culture media was removed and cells were washed twice with 100 μL assay buffer and replaced with 50 μL assay buffer (HBSS solution containing 10 mM HEPES pH7.4 and 5 mM glucose). Cells were rested at room temperature for 20 minutes after which time 25 μL of rolipram (1.2 mM made up in assay buffer containing 2.4% (v/v) dimethylsulphoxide) was added. Cells were incubated with rolipram for 10 minutes after which time test compounds were added and the cells were incubated for 60 minutes at room temperature. The final rolipram concentration in the assay was 300 μM and final vehicle concentration was 1.6% (v/v) dimethylsulphoxide. The reaction was stopped by removing supernatants, washing once with 100 μL assay buffer and replacing with 50 μL lysis buffer. The cell monolayer was frozen at −80° C. for 30 minutes (or overnight).
as §1, with “using” for “using the”, “pre-incubated” for “(containing equal volumes of donor beads (pre-incubated”, “cAMP,” for “cAMP in the dark for 30 minutes) and acceptor beads),”, “concentrations.” for “concentrations (made up in lysis buffer in a 96-well tissue-culture-treated plate and frozen/thawed alongside the test samples) and detected using the same protocol.”, “constructed and data was fitted to a four parameter logistic equation” for “constructed”

T1 sequence (P07550 whole entry): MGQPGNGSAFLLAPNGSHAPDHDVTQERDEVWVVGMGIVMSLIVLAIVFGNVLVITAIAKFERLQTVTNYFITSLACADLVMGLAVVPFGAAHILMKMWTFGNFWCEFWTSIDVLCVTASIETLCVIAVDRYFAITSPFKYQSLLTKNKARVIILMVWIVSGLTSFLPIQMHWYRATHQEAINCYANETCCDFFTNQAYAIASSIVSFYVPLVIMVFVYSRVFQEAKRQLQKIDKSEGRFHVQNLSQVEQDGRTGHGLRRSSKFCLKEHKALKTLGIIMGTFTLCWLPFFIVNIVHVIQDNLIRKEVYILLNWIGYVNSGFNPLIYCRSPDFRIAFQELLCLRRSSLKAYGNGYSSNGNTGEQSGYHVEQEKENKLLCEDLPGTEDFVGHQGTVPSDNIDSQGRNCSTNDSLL

SMILES | Intrinsic Activity (Adrenergic β2 [1]) | EC50 (Adrenergic β2 [1]) [nM] | Intrinsic Activity (Adrenergic β2 [2]) | EC50 (Adrenergic β2 [2]) [nM]
O=c1ccc2c([C@@H](O)CN[C@H]3CC[C@H](NCCOCCc4ccccc4)CC3)ccc(O)c2[nH]1 [Example 2, 8-Hydroxy-5-{(1R)-1-hydroxy-2-[(trans-4-{[2-(2-phenylethoxy)ethyl]amino}cyclohexyl)amino]ethyl}quinolin-2(1H)-one] | 0.9 | 20 | – | –
O=c1ccc2c([C@@H](O)CNC3CCN(CCCOCCc4ccccc4)CC3)ccc(O)c2[nH]1 [Example 3, 8-Hydroxy-5-[(1R)-1-hydroxy-2-({1-[3-(2-phenylethoxy)propyl]piperidin-4-yl}amino)ethyl]quinolin-2(1H)-one] | 0.8 | 31.6 | – | –
O=c1ccc2c([C@@H](O)CNCC3(O)CCN(CCOCCc4ccccc4)CC3)ccc(O)c2[nH]1 [Example 5, 8-Hydroxy-5-{(1R)-1-hydroxy-2-[({4-hydroxy-1-[2-(2-phenylethoxy)ethyl]piperidin-4-yl}methyl)amino]ethyl}quinolin-2(1H)-one] | 0.8 | 2.51 | – | –
O=C(CCN1CCC(NC[C@H](O)c2ccc(O)c3[nH]c(=O)ccc23)CC1)NCc1ccccc1 [Example 6, N-Benzyl-3-(4-{[(2R)-2-hydroxy-2-(8-hydroxy-2-oxo-1,2-dihydroquinolin-5-yl)ethyl]amino}piperidin-1-yl)propanamide] | 0.8 | 7.94 | – | –
O=c1ccc2c([C@@H](O)CNC[C@H]3CCCN(CCOCCc4ccccc4)C3)ccc(O)c2[nH]1 [Example 14, 8-Hydroxy-5-{(1R)-1-hydroxy-2-[({(3R)-1-[2-(2-phenylethoxy)ethyl]piperidin-3-yl}methyl)amino]ethyl}quinolin-2(1H)-one] | 1.0 | 5.01 | – | –

Next, values leading:

Intrinsic Activity (Adrenergic β2 [1]) | EC50 (Adrenergic β2 [1]) [nM] | Intrinsic Activity (Adrenergic β2 [2]) | EC50 (Adrenergic β2 [2]) [nM] | SMILES
– | – | 1 | 0.316 | O=c1[nH]c2c(O)ccc([C@@H](O)CNCC3CN(CCCOCCc4ccccc4)C3)c2s1 [Example 20, 4-Hydroxy-7-{(1R)-1-hydroxy-2-[({1-[3-(2-phenylethoxy)propyl]azetidin-3-yl}methyl)amino]ethyl}-1,3-benzothiazol-2(3H)-one hydrochloride]
– | – | 0.8 | 5.01 | Cc1cccc(Cl)c1CNC(=O)CCN1CCC(NC[C@H](O)c2ccc(O)c3[nH]c(=O)ccc23)CC1 [Example 31, N-(2-Chloro-6-methylbenzyl)-3-(4-{[(2R)-2-hydroxy-2-(8-hydroxy-2-oxo-1,2-dihydroquinolin-5-yl)ethyl]amino}piperidin-1-yl)propanamide]
– | – | – | 3.16 | O=C(CCN1CCC(NC[C@H](O)c2ccc(O)c3[nH]c(=O)ccc23)CC1)NCc1cccc(Cl)c1Cl [Example 36, N-(2,3-Dichlorobenzyl)-3-(4-{[(2R)-2-hydroxy-2-(8-hydroxy-2-oxo-1,2-dihydroquinolin-5-yl)ethyl]amino}piperidin-1-yl)propanamide]
– | – | 0.8 | 3.98 | O=C(CCN1CCC(NC[C@H](O)c2ccc(O)c3[nH]c(=O)ccc23)CC1)NC12CC3CC(CC(C3)C1)C2 [Example 41, N-1-Adamantyl-3-(4-{[(2R)-2-hydroxy-2-(8-hydroxy-2-oxo-1,2-dihydroquinolin-5-yl)ethyl]amino}piperidin-1-yl)propanamide]
– | – | 0.9 | 0.794 | O=c1ccc2c([C@@H](O)CNCC3(O)CCN(CCOCCc4cccc5c4CCCC5)CC3)ccc(O)c2[nH]1 [Example 74, 8-Hydroxy-5-{(2R)-1-hydroxy-2-[(4-hydroxy-1-{2-[2-(5,6,7,8-tetrahydronaphthalen-1-yl)ethoxy]ethyl}piperidin-4-ylmethyl)amino]ethyl}-1H-quinolin-2-one]
